The values that follow come from patent publication US5932483A, “Synthetic peptide and its uses” (Northwestern University, priority 1996, dated 1999).

The test system of assay [1] is binding of rabbit Ig-HRP by solid phase Protein A. Kind of assay: Inhibition of binding of Ig-HRP to solid phase Protein A. How it is done: Protein A (recombinant Protein A from Repligen, Cambridge, Mass.) diluted to 1 μg/ml in coating buffer (0.1M NaHCO3, pH 9.0) was incubated in the wells of a microtiter plate (100 μl per well) for 2 hours at 37° C. Uncoated surfaces of the wells were blocked by adding 340 μl PBSC (9 mM Na2 HPO4, 1 mM NaH2 PO4, pH 7.2, 154 mM NaCl, 1 mg/ml casein or ovalbumin, and 0.01% thimerosal), incubating the plate 1 hour at 37° C., and then washing the wells 3 times with PBSCT (PBSC plus 0.1% Tween 20 (polyoxyethylene sorbitan monolaurate)). Dilutions of rabbit immunoglobulin labeled with horseradish peroxidase (Ig-HRP) (Zymed Laboratories, Inc., South San Francisco, Calif.) in PBS (9 mM Na2 HPO4, 1 mM NaH2 PO4, pH 7.2, 154 mM NaCl) were incubated in the wells (100 μl per well) for 2 hours at 37° C. followed by washing 3 times with PBS. OPD substrate buffer (0.8 mg/ml o-phenylenediamine, 0.1M Na2 HPO4, 0.05M sodium citrate, pH 5.5, plus 0.15% (v/v) H2 O2) was then added to the wells (100 μl/well), and the resultant colored product was measured with a Titertek Multiskan plate reader using a 414 nm filter.
OPD substrate buffer was then added (100 μl/well), and the resulting colored product was measured at 414 nm in a Titertek Multiskan plate reader.
8. […] Then the inhibition assay using solid phase Protein A was performed as described above.

The target in assay [2] is binding of rabbit Ig-HRP to solid phase C1q. Kind of assay: Inhibition of binding of Ig-HRP to solid phase C1q. To be noted: Ig-HRP 1:100 in C1q buffer, 25° C.; read-out: 50% inhibition concentration, Ig-HRP binding to solid phase C1q. How it is done: C1q (gift of Dr. Lawrence Potempa, Immtech International Inc., Evanston, Ill.) diluted to 10 μg/ml in coating buffer was placed in the wells of a microtiter plate (100 μl/well) and incubated for 2 hours at 25° C. The uncoated surfaces of the wells were blocked by adding 340 μl PBSC and incubating the plate for 1 hour at 25° C., followed by washing 3 times with PBSC. Dilutions of Ig-HRP in C1q buffer (50 mM Tris, pH 7.2, 27 mM NaCl, 1 mM CaCl2, 0.01% (wt/v) Thimerosal) were incubated in the wells (100 μl/well) for 1 hour at 25° C. followed by washing 3 times with C1q buffer. OPD substrate buffer was then added (100 μl/well), and the colored product was measured at 414 nm in a Titertek Multiskan plate reader.
C1q was coated onto the surface of the wells of a microtiter plate as described in Part C. […] OPD substrate buffer (100 μl/well) was then added and the colored product measured at 414 nm in a Titertek Mutiskan plate reader.

Assay [3] concerns the target T1, HRP enzyme (Armoracia rusticana, UniProt P00433).
T1 construct: purchased Zymed Laboratories, Inc
Kind of assay: Control: effect of CBP2 on the HRP enzyme. The class given is biochemical, horseradish. Conditions: 50 μM CBP2, 3 hours 37° C. How it is done:
1. […] Aliquots of 100 μl were placed in the wells of a microtiter plate and an equal volume of OPD substrate buffer was added, and the colored product was measured at 414 nm.

In assay [4] the test system is PAP binding to solid phase CBP2. Description: Elution or inhibition of PAP binding to the CBP2 column by solution peptide. Also noted: species or system rabbit. How it is done: An additional 6 ml of C1q buffer was used to wash the column followed by 3 ml of 2% (v/v) acetic acid and then with 6 ml of C1q buffer to completely wash the column.
The sample was then eluted with 21 ml C1q buffer followed by 3 ml of 2% (v/v) acetic acid and then 6 ml C1q buffer. The column fractions were assayed for the presence of peroxidase as described above in Part A, and the concentration of PAP was calculated from the standard curve data.
This was not the case, however, since similar concentrations were used for column elution as for the pre-incubation studies. […] Thus, the effect of aggregates, if they formed, was of little significance.

Assay [5] concerns sensitized sheep erythrocytes (SRBCs), human serum as complement. Kind of assay: Sheep red blood cell lysis assay (SRBC assay). It counts as cell-based.
Assay [6] relates to human C1q binding to PAECs. Description: Immunohistochemical staining of PAECs for binding of human C1q. It counts as cell-based. To be noted: CBP2 1.2 mM. How it is done:
PAECs (1×10^4) in 1 ml of CCM were added to each well of a 4-chamber culture slide (Labtek, Nunc, Naperville, Ill.), and the cells were grown to confluence (incubation for 3 days at 37° C. in 5% CO2 -95% air). The medium was removed, and the slide was washed with PBS (10 mM phosphate buffered saline, pH 7.4, containing 120 mM NaCl and 2.7 mM KCl, Sigma Chemical Co.) in a swirling motion for 5 sec. This was repeated with distilled water and 100% ethanol. The slide was tapped dry and immersed in pre-chilled (-20° C.) acetone for 20 min and then air dried.
HI-HS was added to the wells, and the slide was incubated for 15 min at 37° C. to allow human IgG and IgM antibodies to bind to PAEC epitopes. The HI-HS was removed, and the wells were washed 3 times with PBS. C1q or C1q plus peptide in PBS containing 1% bovine serum albumin (BSA, Sigma Chemical Co.) (PBSA) was then added, and the slide was incubated for 15 min at room temperature. The solutions were removed, and the wells were washed 3 times with PBS. Blocking serum was added [10% donkey serum (The Binding Site, Birmingham, England) in PBS], and the slide was incubated for 20 minutes at room temperature. […] Staining of the cells was analyzed on a Zeiss Axioskop (Carl Zeiss, Oberkochen, Germany) with a wide band FITC filter.

Several values for one entry are separate records, joined by “and”; a condition that tells them apart may be missing. Identical values can stand only once. No end group written: not given here.

PAP binding to solid phase CBP2, sequence (P01870 whole entry): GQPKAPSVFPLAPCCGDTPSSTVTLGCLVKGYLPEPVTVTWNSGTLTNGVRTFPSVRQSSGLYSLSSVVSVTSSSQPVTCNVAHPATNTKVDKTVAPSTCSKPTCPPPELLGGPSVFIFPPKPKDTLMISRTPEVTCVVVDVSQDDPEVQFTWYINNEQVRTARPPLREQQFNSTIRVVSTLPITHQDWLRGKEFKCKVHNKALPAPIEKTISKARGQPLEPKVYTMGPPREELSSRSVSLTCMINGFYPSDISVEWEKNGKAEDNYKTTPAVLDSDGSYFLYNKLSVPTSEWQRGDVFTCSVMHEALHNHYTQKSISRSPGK
T1 sequence (P00433 31-338 limits assumed): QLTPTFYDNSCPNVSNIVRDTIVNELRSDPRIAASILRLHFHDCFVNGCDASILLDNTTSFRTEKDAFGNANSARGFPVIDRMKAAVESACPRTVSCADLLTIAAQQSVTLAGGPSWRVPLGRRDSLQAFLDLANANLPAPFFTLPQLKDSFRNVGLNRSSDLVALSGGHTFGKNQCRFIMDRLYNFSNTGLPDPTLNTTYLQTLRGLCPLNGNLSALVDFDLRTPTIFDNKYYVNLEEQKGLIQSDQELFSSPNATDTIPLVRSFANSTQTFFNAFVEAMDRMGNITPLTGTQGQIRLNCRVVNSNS
T1 sequence (P01870 whole entry partner): as the sequence (P01870 whole entry) above
T1 sequence (P01840 whole entry partner): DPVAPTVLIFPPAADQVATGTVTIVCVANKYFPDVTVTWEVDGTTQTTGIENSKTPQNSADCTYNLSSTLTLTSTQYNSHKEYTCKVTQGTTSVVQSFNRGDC

Consider “LEQGENVFLQATLLC [CBP2, C1q B chain residues 189-200 plus Leu Leu Cys at the carboxyl terminus]”, for which, in assay [1], the “inhibition of Protein A binding of Ig-HRP (maximum)” value is roughly 100%. For the same sequence, the “effect of DTT on the inhibitory activity of CBP2” value in assay [1] (4 mg/ml DTT, 2 hours 37° C., solid phase Protein A) is reported as “no effect”. Besides, the IC50 was roughly 1 µM in assay [1] (Ig-HRP 1:5000 in PBS, preincubated 1 hour 37° C., read-out: concentration at 50% inhibition of Protein A binding of Ig-HRP) and roughly 10 µM in assay [2]. Also, the “effect on the HRP enzyme” value in assay [3] is reported as “did not inhibit the HRP enzyme”. Also, the “PAP binding to solid phase CBP2 after pre-incubation with peptide” value in assay [4] (0.1 mM peptide, 1 hour 25° C., PAP 20 μg/ml) is “dramatic loss of PAP binding”. Further, the “elution of bound PAP from CBP2 column by peptide wash” value in assay [4] (3 ml of 336.2 μg/ml CBP2 or equimolar LHRH) was “small but significant PAP peak which was eluted from the column”. For the same sequence, in assay [4] (PAP pre-incubated with 156 μg/ml CBP2), the “inhibition of PAP binding to CBP2 column” value was “approximately 40%”. Further, the “% Inhibition SRBC Assay +/- S.D.” value is 0.0 +/- 0.0% in assay [5] (31 μM); 13.5% and 13.5 +/- 9.3% in assay [5] (62.5 μM); 45.2 +/- 30.8% in assay [5] (125 μM); 78.0 +/- 18.3% in assay [5] (250 μM); 97.4 +/- 2.7% in assay [5] (1000 μM). For the same sequence, the “C1q binding to PAECs (immunohistochemical staining)” value in assay [6] is recorded as “only trace binding of C1q”.
